Measured values reported in patent US9682925B2, “Cyclopropaneamine compound” (TAKEDA PHARMACEUTICAL COMPANY LIMITED, priority 2011, dated 2017).
Structures can show the parent of a compound that is named as a salt.

How the values were obtained:
Format in all cases: biochemical
MAO-A = target: T1, MAO-A (Homo sapiens, UniProt P21397); experiment: Measurement of MAO-A inhibitory activity (MAO-Glo Assay)
T1 construct: purchased Sigma-Aldrich Co. LLC
T1 sequence (P21397 1-527): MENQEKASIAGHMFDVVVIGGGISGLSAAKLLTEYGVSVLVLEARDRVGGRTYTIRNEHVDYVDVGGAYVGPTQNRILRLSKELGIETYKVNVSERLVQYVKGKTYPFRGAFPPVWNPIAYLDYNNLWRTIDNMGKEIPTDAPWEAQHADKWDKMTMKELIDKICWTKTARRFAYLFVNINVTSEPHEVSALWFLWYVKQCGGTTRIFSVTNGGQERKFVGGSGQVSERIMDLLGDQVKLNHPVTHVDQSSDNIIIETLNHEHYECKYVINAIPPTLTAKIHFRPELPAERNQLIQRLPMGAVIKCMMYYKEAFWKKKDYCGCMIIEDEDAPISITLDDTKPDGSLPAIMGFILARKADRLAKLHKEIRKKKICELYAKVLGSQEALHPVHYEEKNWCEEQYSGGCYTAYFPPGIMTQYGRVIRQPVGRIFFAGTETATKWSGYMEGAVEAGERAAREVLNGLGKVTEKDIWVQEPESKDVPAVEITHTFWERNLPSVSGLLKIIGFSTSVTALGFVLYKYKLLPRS
Description: (1) Measurement of MAO-A Inhibitory Activity
The MAO-A inhibitory activity evaluation described below followed the protocol of MAO-Glo (registered trademark) Assay of Promega KK.
(§1) A test compound dissolved in 4% DMSO was added by 12.5 μL to 25 μL reaction solution (100 mM HEPES (pH 7.5), 5% glycerol) containing 400 ng of MAO-A enzyme (Sigma-Aldrich Co. LLC.), and the mixture was reacted at room temperature for 10 min. MAO substrate (Promega KK) (160 μM) was added by 12.5 μL to start the reaction. After reaction at room temperature for 60 min, Luciferine detection reagent (Promega KK) (50 μL) was added to terminate the reaction. After reaction at room temperature for 20 min with stirring, the luminescence was measured by Envision (PerkinElmer). The MAO-A inhibitory rate (%) of the test compound was calculated by the following formula. inhibitory rate (%)=(1−(test compound count−blank)÷(control−blank)×100
The count of the MAO-A enzyme reaction mixture under compound non-addition conditions is indicated as control, and the count under compound non-addition and MAO-A enzyme non-addition conditions is indicated as blank.

human LSD1(171-852) = target: T2, human LSD1(171-852) (Homo sapiens, UniProt O60341); experiment: Measurement of LSD1 inhibitory activity (time-resolved fluorescence, biotin-histone H3 mono methylated K4 peptide); details: read-out: LSD1 IC50 value
T2 construct: to give hLSD1(171-852) purified product; made in house; host or cells: Escherichia coli C43(DE3) pLysS
Description: When the turbidity reached 600 Klett units, the culture temperature was changed to 16° C., IPTG having a final concentration of 0.5 mM was added to induce expression, and the cells were cultured further for 21 hr. The culture medium was centrifuged at 9,000 g for 10 min, and Escherichia coli pellets were recovered.
Escherichia coli pellets in 9 L of the culture medium were suspended in 1340 mL of an extraction buffer (PBS, 5% (V/V) Glycerol), and 6700 units of Benzonase (Merck) were added. Using Branson ultrasonic disintegrator, the suspension was disrupted by ultrasonication for 3 min, and centrifuged at 33,000 g for 20 min, and the supernatant was recovered.
(5) Measurement of LSD1 Inhibitory Activity
After reaction at room temperature for 20 min, 1 mM 2-PCPA solution (5 μL) was added to terminate the reaction. A detection solution (800 mM potassium fluoride, 0.1% BSA) containing europium-labeled antihistone H3 antibody (Wako Pure Chemical Industries, Ltd.) and Streptavidin-XL665 (Cisbio) was further added by 5 μL, and the mixture was left standing for 60 min. A time-resolved fluorescence (excitation 320 nm, emission 615 nm, 665 nm) was measured by Envision (PerkinElmer). The LSD1 inhibitory rate (%) of the test compound was calculated by the following formula. inhibitory rate (%)=(1−(test compound count−blank)÷(control−blank)×100
The count of the LSD1 enzyme reaction mixture under compound non-addition conditions is indicated as control, and the count under compound non-addition and LSD1 enzyme non-addition conditions is indicated as blank.

MAO-B = target: T3, MAO-B (Homo sapiens, UniProt P27338); experiment: Measurement of MAO-B inhibitory activity (MAO-Glo Assay)
T3 construct: purchased Sigma-Aldrich Co. LLC
T3 sequence (P27338 1-520): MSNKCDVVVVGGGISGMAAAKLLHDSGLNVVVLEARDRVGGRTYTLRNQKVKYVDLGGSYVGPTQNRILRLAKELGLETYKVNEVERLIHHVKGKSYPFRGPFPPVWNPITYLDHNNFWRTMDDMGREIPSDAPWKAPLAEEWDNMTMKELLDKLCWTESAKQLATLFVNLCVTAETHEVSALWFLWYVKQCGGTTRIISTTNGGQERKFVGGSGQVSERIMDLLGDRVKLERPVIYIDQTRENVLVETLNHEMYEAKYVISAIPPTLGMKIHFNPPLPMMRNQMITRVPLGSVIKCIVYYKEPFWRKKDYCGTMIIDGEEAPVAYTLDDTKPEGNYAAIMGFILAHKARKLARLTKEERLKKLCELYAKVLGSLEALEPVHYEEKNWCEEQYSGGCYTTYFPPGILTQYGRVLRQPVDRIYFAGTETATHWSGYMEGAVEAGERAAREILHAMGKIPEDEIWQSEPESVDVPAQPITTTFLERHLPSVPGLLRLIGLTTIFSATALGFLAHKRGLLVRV
Description: (2) Measurement of MAO-B Inhibitory Activity
The MAO-B inhibitory activity evaluation described below followed the protocol of MAO-Glo (registered trademark) Assay of Promega KK.
as §1, with “glycerol, 10% DMSO)” for “glycerol)”, “MAO-B” for “MAO-A”, “(16” for “(160”
The count of the MAO-B enzyme reaction mixture under compound non-addition conditions is indicated as control, and the count under compound non-addition and MAO-B enzyme non-addition conditions is indicated as blank.

Structure (SMILES)	IC50 (MAO-A) [µM]	IC50 (human LSD1(171-852)) [µM]	IC50 (MAO-B) [µM]
O=C(Nc1ccc([C@@H]2C[C@H]2NC2c3ccccc3-c3ccccc32)cc1)c1ccccc1 (relative stereo) [Example 21, N-{4-[trans-2-(9H-fluoren-9-ylamino)cyclo-propyl]phenyl}-benzamide]	> 10	< 0.1	> 10
O=C(Nc1ccc([C@@H]2C[C@H]2NCC2CC2)cc1)c1ccc(-c2ccccc2Cl)cc1 (relative stereo) [Example 78, 2′-chloro-N-(4-{trans-2-[(cyclopropylmethyl)amino]cyclopropyl}phenyl)biphenyl-4-carboxamide hydrochloride]	> 10	< 0.1	> 10
O=C(Nc1ccc([C@@H]2C[C@H]2NC2CCCCCC2)cc1)c1ccccc1 (relative stereo) [Example 23, N-{4-[trans-2-(cycloheptyl-amino)cyclo-propyl]phenyl}-benzamide]	> 10	< 0.1	> 10
O=C(Nc1ccc([C@@H]2C[C@H]2NCC2CC2)cc1)c1cccc(C(F)(F)F)c1 (relative stereo) [Example 65, N-(4-{trans-2-[(cyclopropylmethyl)amino]cyclopropyl}phenyl)-3-(trifluoromethyl)benzamide hydrochloride]	8.6	< 0.1	9.6
O=C(Nc1ccc([C@@H]2C[C@H]2NCC2CC2)cc1)c1ccccc1 (relative stereo) [Example 140, N-(4-{trans-2-[(cyclopropylmethyl)amino]cyclopropyl}phenyl)benzamide hydrochloride]	> 10	< 0.1	> 10
O=C(Nc1ccc([C@@H]2C[C@H]2NCc2ccc(Cl)c(Cl)c2)cc1)c1ccc(-c2ccccc2)cc1 (relative stereo) [Example 53, N-(4-{trans-2-[(3,4-dichloro-benzyl)amino]-cyclopropyl}phenyl)-biphenyl-4-carboxamide]	4	0.23	3.4
O=C(Nc1ccc([C@@H]2C[C@H]2NCC2CC2)cc1)c1cccc(Cn2cncn2)c1 (relative stereo) [Example 147, N-(4-{trans-2-[(cyclopropylmethyl)amino]cyclopropyl}phenyl)-3-(1H-1,2,4-triazol-1-ylmethyl)benzamide hydrochloride]	> 10	< 0.1	> 10
CCCc1ccc(-c2ccc(C(=O)Nc3ccc([C@@H]4C[C@H]4NCC4CC4)cc3)cc2)cc1 (relative stereo) [Example 116, N-(4-{trans-2-[(cyclopropylmethyl)amino]cyclopropyl}-phenyl)-4′-propylbiphenyl-4-carboxamide]	> 10	1.8	> 10
O=C(Nc1ccc([C@@H]2C[C@H]2NC2CCN(c3ccccc3)CC2)cc1)c1cccc(C(F)(F)F)c1 (relative stereo) [Example 75, N-(4-{trans-2-[(1-phenylpiperidin-4-yl)amino]cyclopropyl}phenyl)-3-(trifluoromethyl)benzamide dihydrochloride]	> 10	< 0.1	> 10
O=C(Nc1ccc([C@@H]2C[C@H]2NC2CCN(C3CC3)CC2)cc1)c1cccc(C(F)(F)F)c1 (relative stereo) [Example 111, N-(4-{trans-2-[(1-cyclopropylpiperidin-4-yl)amino]cyclopropyl}phenyl)-3-(trifluoromethyl)benzamide dihydrochloride]	> 10	< 0.1	> 10
Cc1cc(C(=O)Nc2ccc([C@@H]3C[C@H]3NCC3CC3)cc2)nn1C (relative stereo) [Example 157, N-(4-{trans-2-[(cyclopropylmethyl)amino]cyclopropyl}phenyl)-1,5-dimethyl-1H-pyrazole-3-carboxamide dihydrochloride]	> 10	0.1	> 10
Cn1cc(C(=O)Nc2ccc([C@@H]3C[C@H]3NCC3CC3)cc2)c(C(F)(F)F)n1 (relative stereo) [Example 158, N-(4-{trans-2-[(cyclopropylmethyl)amino]cyclopropyl}phenyl)-1-methyl-3-(trifluoromethyl)-1H-pyrazole-4-carboxamide hydrochloride]	> 10	< 0.1	> 10
O=C(Nc1ccc([C@@H]2C[C@H]2NCc2ccccc2)cc1)c1ccccc1 (relative stereo) [Example 1, N-{4-[trans-2-(benzylamino)cyclopropyl]phenyl}benzamide]	3.8	< 0.1	9.7
O=C(Nc1ccc([C@@H]2C[C@H]2NCc2cccnc2)cc1)c1ccc(-c2ccccc2)cc1 (relative stereo) [Example 38, N-(4-{trans-2-[(pyridin-3-ylmethyl)amino]-cyclopropyl}-phenyl)biphenyl-4-carboxamide]	9.1	< 0.1	> 10
O=C(Nc1cccc(C(=O)Nc2ccc([C@@H]3C[C@H]3NCc3ccccc3)cc2)c1)c1ccccc1 (relative stereo) [Example 31, N-{4-[trans-2-(benzylamino)cyclopropyl]phenyl}-3-[(phenylcarbonyl)amino]benzamide]	> 10	< 0.1	> 10
CC(C)N1CCC(N[C@@H]2C[C@H]2c2ccc(NC(=O)c3cccc(C(F)(F)F)c3)cc2)CC1 (relative stereo) [Example 112, N-[4-(trans-2-{[1-(1-methylethyl)piperidin-4-yl]amino}cyclopropyl)phenyl]-3-(trifluoromethyl)benzamide dihydrochloride]	> 10	< 0.1	> 10
